Where “and” joins values, the source holds several entries; their conditions need not be identical. Identical values can stand only once.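 Test compounds were applied to cells in 96-well plates for 48 hours at 5 doses. The concentration for 50% growth inhibition is given as GI50. At the TGI there is no net growth.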
Key:
Assay in all cases: growth of human tumour cells (NCI), 48 h
IGROV1 ovarian = tested on: IGROV1 ovarian
MDA-MB-231 breast = tested on: MDA-MB-231 breast
NCI-H23 lung = tested on: NCI-H23 lung
OVCAR-5 ovarian = tested on: OVCAR-5 ovarian
OVCAR-8 ovarian = tested on: OVCAR-8 ovarian
RXF 393 renal = tested on: RXF 393 renal
SK-MEL-2 melanoma = tested on: SK-MEL-2 melanoma
SK-MEL-5 melanoma = tested on: SK-MEL-5 melanoma
T-47D breast = tested on: T-47D breast
TK-10 renal = tested on: TK-10 renal

SMILES | GI50 (IGROV1 ovarian) [µM] | TGI (IGROV1 ovarian) [µM] | GI50 (MDA-MB-231 breast) | TGI (MDA-MB-231 breast) | GI50 (NCI-H23 lung) [µM] | TGI (NCI-H23 lung) | GI50 (OVCAR-5 ovarian) | TGI (OVCAR-5 ovarian) | GI50 (OVCAR-8 ovarian) | TGI (OVCAR-8 ovarian) | GI50 (RXF 393 renal) | TGI (RXF 393 renal) | GI50 (SK-MEL-2 melanoma) | TGI (SK-MEL-2 melanoma) | GI50 (SK-MEL-5 melanoma) | TGI (SK-MEL-5 melanoma) | GI50 (T-47D breast) | TGI (T-47D breast) | GI50 (TK-10 renal) | TGI (TK-10 renal)
CN(c1ccc(C#N)c(Cl)c1)C1CCC(NC(=O)c2ccc(N3CCN(C4CN(c5ccc6c(c5)C(=O)N(C5CCC(=O)NC5=O)C6=O)C4)CC3)cc2)CC1 (centres undefined) | > 100 | > 100 | 18.9 µM | 41.6 µM | > 100 | > 100 µM | 47.6 µM | > 100 µM | > 100 µM | > 100 µM | > 100 µM | > 100 µM | > 100 µM | > 100 µM | > 100 µM | > 100 µM | > 100 µM | > 100 µM | > 100 µM | > 100 µM
Cc1cc(NC(=O)c2cnc(N3CCN(CCOCCOCCOCCOCCC(=O)N[C@H](C(=O)N4C[C@H](O)C[C@H]4C(=O)N[C@@H](C)c4ccc(-c5scnc5C)cc4)C(C)(C)C)CC3)cn2)c2ncccc2c1 | 2.39 | 8.17 | 1.98 µM | 3.98 µM | 3.57 | 15.8 µM | 14.9 µM | 50.8 µM | 3.38 µM | > 100 µM | 1.73 µM | 3.71 µM | 3.17 µM | 11 µM | 2.36 µM | 5.72 µM | 3.03 µM | 17.9 µM | 10.7 µM | 53.4 µM
CC1(C)CC2=C(Sc3ccccc3N2)C(=O)C1C(=O)C(=O)Nc1cc(Cl)ccc1Cl (centres undefined) | – | > 100 | – | > 100 µM | – | > 100 µM | – | > 100 µM | – | > 100 µM | – | > 100 µM | – | > 100 µM | – | > 100 µM | – | > 100 µM | – | –
CCN(CC)C(=S)SSC(=S)N(CC)CC | 142 | 543 | 16.1 µM and 16.7 µM | 32.5 µM and 34.3 µM | 23 | > 76.7 µM and 70.1 µM | 35.4 µM and 17.9 µM | > 56 µM and 32.6 µM | 18.8 µM and 15.8 µM | 50.7 µM and 33.5 µM | 15.8 µM and 17.3 µM | 32.4 µM and 32.9 µM | 26.3 µM and 82.2 µM | 71.1 µM and 297 µM | 16.6 µM and 14.6 µM | 39.9 µM and 33.5 µM | 15.7 µM and 13 µM | 51.3 µM and 39.3 µM | 21.9 µM and 34.2 µM | 43.4 µM and 99.7 µM
COc1cc(/C=C/[N+](=O)[O-])cc(OC)c1OC | 2.45 | 7.61 | 1.87 µM | 4.86 µM | 2.41 | 6.44 µM | 2.09 µM | 5.11 µM | 3.04 µM | 12.1 µM | 1.47 µM | 2.97 µM | 3.05 µM | 7.11 µM | 1.55 µM | 3 µM | 2 µM | 9.6 µM | 2.49 µM | 6.07 µM
NNc1c2ccccc2nc2ccccc12 | 3.07 | 20.8 | 10.7 µM | 48.6 µM | 1.37 | 33 µM | 15.8 µM | 54.1 µM | 5.09 µM | 30.7 µM | 7.4 µM | 24.4 µM | 12.5 µM | 29.2 µM | 2.14 µM | 13.3 µM | 6.08 µM | 73.4 µM | 8.32 µM | 26.7 µM
C[C@H]1c2ccccc2CN1CCCOc1cc2c(cc1OCC1CC1)C1(CCCC1)C(N)=N2 | 2.27 | 9.11 | 1.44 µM | 5.21 µM | 3.26 | 10.3 µM | 3.6 µM | 10.1 µM | 2.38 µM | 8.83 µM | 1.08 µM | 3.82 µM | 1.87 µM | 6.69 µM | 0.912 µM | 1.69 µM | 0.99 µM | 2.5 µM | 2.07 µM | 8.26 µM
CCOC1OC(=O)[C@H]2[C@@H]1[C@@H]1CC[C@H]2O1 (some centres undefined) | > 100 | > 100 | > 100 µM | > 100 µM | > 100 | > 100 µM | > 100 µM | > 100 µM | > 100 µM | > 100 µM | > 100 µM | > 100 µM | > 100 µM | > 100 µM | > 100 µM | > 100 µM | > 59.1 µM | > 100 µM | > 100 µM | > 100 µM
Cn1nnc2c(C(N)=O)ncn2c1=O | – | > 100 | – | > 100 µM | – | > 100 µM | – | > 100 µM | – | > 100 µM | – | > 100 µM | – | > 100 µM | – | > 100 µM | – | > 100 µM | – | > 100 µM
CN1CCN(c2cc3nc4ccccc4n(-c4ccc(Cl)cc4)c-3cc2=N)CC1 | 17.2 | 53.5 | 10.6 µM | 49.9 µM | 15.9 | 32.9 µM | 24.1 µM | 60.8 µM | 13.7 µM | 38.4 µM | 20.3 µM | 99.8 µM | 33.7 µM | > 100 µM | 16.3 µM | 32.7 µM | > 100 µM | > 100 µM | 36.1 µM | > 100 µM
OCc1ccc(N2CCCC2)cc1Cl | 0.452 | 2 | > 79.4 µM | > 100 µM | 27.5 | > 100 µM | 0.148 µM | 0.498 µM | 46 µM | > 100 µM | 9.57 µM | 27.1 µM | 12.9 µM | 51.5 µM | 18.7 µM | > 75.5 µM | 0.538 µM | 2.88 µM | 0.201 µM | 0.556 µM
Oc1c(Cl)cc(Cl)c2cccnc12 | 3.72 | 18.8 | 3.04 µM | 18.3 µM | 4.2 | 42.5 µM | 8.71 µM | 43.3 µM | 2.75 µM | 54.6 µM | 2.25 µM | 7.91 µM | 3.83 µM | 11.5 µM | 1.76 µM | 3.59 µM | 2.35 µM | 12 µM | 5.56 µM | 30.8 µM
CCN(CC)CCCC(C)Nc1c(-c2ccccc2)cnc2cc(Cl)ccc12 (centres undefined) | 11.8 | 31.4 | 3.5 µM | 13.2 µM | 11 | 28.5 µM | 10.5 µM | 27 µM | 11.9 µM | 32.3 µM | 3.36 µM | 11.1 µM | 6.56 µM | 13.8 µM | 1.74 µM | 3.64 µM | 4.44 µM | 16.2 µM | 6.93 µM | 17.5 µM
